We go through 33 molecules from patent publication US20260176270A1 (Exelixis, Inc., priority 2022, published 2026).

Like-named read-outs stand apart in the source and are kept apart here.

Test [1] addresses T1, PKMYT1 (Homo sapiens, UniProt Q99640).
T1 construct: PKMYT1 (93 kD, full length, N-terminal GST tag from Signal Chem); GST (N); purchased Signal Chem
T1 sequence (Q99640 1-499): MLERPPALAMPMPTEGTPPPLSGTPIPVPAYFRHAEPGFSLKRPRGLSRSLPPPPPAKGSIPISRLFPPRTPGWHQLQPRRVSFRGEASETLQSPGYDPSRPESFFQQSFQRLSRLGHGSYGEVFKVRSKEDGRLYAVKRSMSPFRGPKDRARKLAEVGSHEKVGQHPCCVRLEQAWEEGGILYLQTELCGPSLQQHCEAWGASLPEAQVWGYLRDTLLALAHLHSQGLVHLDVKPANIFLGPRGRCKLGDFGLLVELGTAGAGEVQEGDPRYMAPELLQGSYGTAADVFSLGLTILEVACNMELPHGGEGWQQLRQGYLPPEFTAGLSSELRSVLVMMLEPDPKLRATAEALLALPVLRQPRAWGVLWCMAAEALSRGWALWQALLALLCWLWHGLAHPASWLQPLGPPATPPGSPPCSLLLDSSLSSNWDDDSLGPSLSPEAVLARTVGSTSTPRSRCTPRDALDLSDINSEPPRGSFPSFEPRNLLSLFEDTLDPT
Briefly: ADP-Glo PKMYT1 ATP-depletion assay. The note with it: 50 nM PKMYT1, 13.3 nM CDK1, read-out: Biochemical IC50. The method, then:
(§1) Biochemical IC50 values were determined via ADP-Glo™ assay. Cellular IC50 values were determined via AlphaLISA assay.
ADP-Glo™ PKMYT1 ATP-depletion assay. The activity of PKMYT1 is measured using a luciferase-luciferin based ATP detection reaction to quantify ATP depletion resulting from kinase-catalyzed phosphoryl transfer to CDK1 or autophosphorylation of PKMYT1. The ADP generated as a byproduct of the reaction is converted to ATP and used to drive a luciferase reaction. Test compounds were dissolved in DMSO and dispensed into Corning 3824 384-well plates prior to the experiment such that the final DMSO concentration was <1%. To the compounds was added 3 μL of PKMYT1 (93 kD, full length, N-terminal GST tag from Signal Chem). The reaction was started by the addition of 2 μL of CDK1 (58 kDa, full length, N-terminal GST tag from Signal Chem) and ATP in assay buffer (50 mM Hepes, 40 mM NaCl, 10 mM MgCl2, 1 mM DTT, 0.1 mg/mL BSA, 2.5 mM MnCl2). Final assay concentrations were 50 nM PKMYT1, 13.3 nM CDK1, and 88 µM ATP. Plates were centrifuged for 1 minute at 1000 RPM and incubated at RT for 120 minutes. After the incubation period, ADP-Glo™ reagent was added and the plates were incubated for another 40 minutes before finally adding the kinase detection reagent. 30 minutes after the addition, plates were placed on a PHERAstar® plate reader and read using the Luminescence Protocol, integration time at 0.5 seconds.

The subject of test [2] is phosphorylation of CDK1 at Thr14 in HCC1806 cells. Nature of the test: Cell lysate AlphaLISA assay measuring inhibition of phosphorylation of CDK1 Thr14. In kind it is cell-based. The conditions noted are these: read-out: Cellular IC50. Here is the method: as §1
Cell lysate AlphaLISA® assay measuring inhibition of phosphorylation of CDK1 Thr14. Inhibition of phosphorylation of CDK1 at Thr14 was determined using AlphaLISA® SureFire® Ultra™ Kit from Perkin Elmer (ALSU-PCDK1-A10K). HCC1806 cells were seeded at 2K cells per well (50 μl/well) in 384-well plates (Corning 3570) and stored overnight at 37° C. and 5% CO2. The following day, the compounds dissolved in DMSO were introduced to the cells and incubated for 4 hours at 37° C. and 5% CO2. The cells were then washed with PBS using Blue®Washer and 10 μl of lysis buffer containing protease inhibitor was added. The plate was placed on an orbital shaker (at 4° C.) for 30 minutes and stored overnight at −80° C. for complete lysing. The next day, the plates were thawed at room temperature for at least 30 min. Reagents were prepared in a dimmed light setting (<100 lumens). The assay was run by first adding 5 μl of the acceptor mix (reaction buffer 1: reaction buffer 2: activation buffer: acceptor beads 47:47:4:2), covering the plate with foil, shaking for 2 minutes and incubating at RT for 60 minutes. The donor mix (dilution buffer: donor beads 47:3) was then added at 5 μl per well, placed on the shaker for 2 minutes and incubated at RT for 60 minutes before reading the plates on a PHERAstar® plate reader. The results were normalized to DMSO (0% Inhibition) and 3 μM of reference compound.

Consider `Cc1c(O)cccc1-c1c(N)c(C(N)=O)cc2nccnc12` [Compound 73, 7-Amino-8-(3-hydroxy-2-methyl-phenyl)quinoxaline-6-carboxamide], for which the concentration for half-maximal inhibition (IC50) in test [1] is less than 50 nM; in test [2] (Homo sapiens, HCC1806, 4 h) it was 50 to 500 nM.

In the case of `Cc1c(O)cccc1-c1c(N)c(C(N)=O)cc2cc(Cl)cnc12` (atropisomer, axis not shown) [Compound 179], the half-maximal inhibitory concentration (IC50) was less than 50 nM in test [1] and 50 to 500 nM in test [2] (4 hours).

As for `Cc1cnc2c(-c3c(C)ccc(O)c3C)c(N)c(C(N)=O)cc2c1` (atropisomer, axis not shown) [Compound 213], the half-maximal inhibitory concentration (IC50) was less than 50 nM in test [1] and 50 to 500 nM in test [2] (Homo sapiens, HCC1806, 4 h).

For the molecule `Cc1ccc2[nH]ncc2c1-c1c(N)c(C(N)=O)cc2nccnc12` (single isomer, unassigned) [Compound 79, (M)-7-amino-8-(5-methyl-1H-indazol-4-yl)quinoxaline-6-carboxamide], the half-inhibitory concentration (IC50) in test [1] and in test [2] (4 hours) was no less than 5000 nM in each case.

`Cc1ccc(O)c(C)c1-c1c(N)c(C(N)=O)nc2c(C(F)(F)F)cccc12` (single isomer, unassigned) [Compound 30, (M)-3-Amino-4-(3-hydroxy-2,6-dimethylphenyl)-8-(trifluoromethyl) quinoline-2-carboxamide]: the half-inhibitory concentration (IC50) in test [1] was 50 to 500 nM; in test [2] (4 hours), less than 50 nM.

On to `Cc1c(C#N)cncc1-c1c(N)c(C(N)=O)nc2cccnc12` [Compound 317], for which the IC50 is 1000 to 5000 nM in test [1] and no less than 5000 nM in test [2] (Homo sapiens, HCC1806, 4 h).

Regarding `COc1nc2c(-c3cccc(O)c3C)c(N)c(C(N)=O)cc2nc1C` (atropisomer, axis not shown) [Compound 224], the 50% inhibitory concentration (IC50) is 1000 to 5000 nM in test [1] and no less than 5000 nM in test [2] (4 hours).

Turning to `Cc1ccc2[nH]ncc2c1-c1c(N)c(C(N)=O)nc2cccnc12` (single isomer, unassigned) [Compound 8, (M)-3-amino-4-(5-methyl-1H-indazol-4-yl)-1,5-naphthyridine-2-carboxamide], the IC50 in test [1] and in test [2] (4 hours) was no less than 5000 nM in each case.

As for `Cc1c(-c2c(N)c(C(N)=O)nc3cccnc23)cnn1C` [Compound 320], the IC50 is no less than 5000 nM in test [1] and 1000 to 5000 nM in test [2] (Homo sapiens, HCC1806, 4 h).

On to `Cc1ccc(O)c(C)c1-c1c(N)c(C(N)=O)nc2nccnc12` (single isomer, unassigned) [Compound 127, (P)-7-Amino-8-(3-hydroxy-2,6-dimethylphenyl)pyrido[2,3-b]pyrazine-6-carboxamide], for which the IC50 in test [1] and in test [2] (4 hours) was less than 50 nM throughout.

Turning to `Cc1ccc(O)c(C)c1-c1c(N)c(C(N)=O)nc2c(C(F)(F)F)cccc12` [Compound 28, 3-Amino-4-(3-hydroxy-2,6-dimethylphenyl)-8-(trifluoromethyl)quinoline-2-carboxamide], the IC50 lay within 50 to 500 nM in test [1] and 50 to 500 nM in test [2] (Homo sapiens, HCC1806, 4 h).

With `Cc1cccc(C)c1-c1c(N)c(C(N)=O)cc2nccnc12` [Compound 308], the IC50 in test [1] is no less than 5000 nM; in test [2] (Homo sapiens, HCC1806, 4 h), no less than 5000 nM.

Consider `Cc1c(O)cccc1-c1c(N)c(C(N)=O)cc2nc(C)c(=O)n(C)c12` (atropisomer, axis not shown) [Compound 170], for which the concentration for half-maximal inhibition (IC50) in test [1] and in test [2] (4 hours) was no less than 5000 nM throughout.

On to `Cc1c(O)cccc1-c1c(N)c(C(N)=O)cc2nc(N3CCOCC3)cnc12` [Compound 321], for which the IC50 in test [1] is less than 50 nM; in test [2] (Homo sapiens, HCC1806, 4 h) it was 500 to 1000 nM.

Consider `Cc1c(O)cccc1-c1c(N)c(C(N)=O)nc2nccc(O)c12` [Compound 297], for which the IC50 was no less than 5000 nM in test [1] and no less than 5000 nM in test [2] (Homo sapiens, HCC1806, 4 h).

Take `Cc1c(O)cccc1-c1c(N)c(C(N)=O)nc2cc(C(F)(F)F)cnc12` (atropisomer, axis not shown) [Compound 167]: the IC50 in test [1] was 1000 to 5000 nM; in test [2] (4 hours) it was no less than 5000 nM.

`Cc1c(Cl)cncc1C1=c2ncccc2=NC(C(N)=O)C1N` (stereo not drawn) [Compound 240]: the concentration for half-maximal inhibition (IC50) in test [1] was less than 50 nM; in test [2] (4 hours) it was 50 to 500 nM.

As for `COc1ccnc2cc(C(N)=O)c(N)c(-c3cccc(O)c3C)c12` [Compound 333], the IC50 in test [1] is 50 to 500 nM; in test [2] (Homo sapiens, HCC1806, 4 h), less than 50 nM.

Turning to `NC(=O)c1cc(-c2cccc3[nH]ncc23)c2ccccc2n1` [Compound 14, 4-(1H-Indazol-4-yl)quinoline-2-carboxamide], the half-maximal inhibitory concentration (IC50) in test [1] was no less than 5000 nM; in test [2] (Homo sapiens, HCC1806, 4 h), no less than 5000 nM.

As to `Cc1ccc2[nH]nc(F)c2c1-c1c(N)c(C(N)=O)cc2nccnc12` (atropisomer, axis not shown) [Compound 300], the concentration for half-maximal inhibition (IC50) in test [1] was 50 to 500 nM; in test [2] (4 hours), 1000 to 5000 nM.

Turning to `Cc1ccc(-c2c(N)c(C(N)=O)nc3cccnc23)c(C)c1O` (atropisomer, axis not shown) [Compound 287], the concentration for half-maximal inhibition (IC50) in test [1] and in test [2] (4 hours) was no less than 5000 nM each time.

Take `Cc1ccc2[nH]nc(F)c2c1-c1c(N)c(C(N)=O)cc2nccnc12` [Compound 176]: the IC50 in test [1] is 500 to 1000 nM; in test [2] (4 hours) it was no less than 5000 nM.

Turning to `Cc1ccc(O)c(C)c1-c1c(N)c(C(N)=O)nc2c(C)cccc12` (single isomer, unassigned) [Compound 33], the IC50 is 1000 to 5000 nM in test [1] and no less than 5000 nM in test [2] (4 hours).

For `NC(=O)c1nc2cccnc2c(-c2cncc3sccc23)c1N` [Compound 230], the IC50 in test [1] lay within 50 to 500 nM; in test [2] (Homo sapiens, HCC1806, 4 h), 1000 to 5000 nM.

In the case of `Cc1c(O)cc(O)cc1-c1c(N)c(C(N)=O)cc2nccnc12` [Compound 331], the half-inhibitory concentration (IC50) in test [1] is 50 to 500 nM; in test [2] (Homo sapiens, HCC1806, 4 h) it was no less than 5000 nM.

As to `Cc1c(O)cccc1-c1c(N)c(C(N)=O)nc2nccnc12` [Compound 11, 7-Amino-8-(3-hydroxy-2-methylphenyl)pyrido[2,3-b]pyrazine-6-carboxamide], the IC50 in test [1] was less than 50 nM; in test [2] (Homo sapiens, HCC1806, 4 h) it was 50 to 500 nM.

Consider `Cc1cc2c[nH]nc2cc1-c1c(N)c(C(N)=O)nc2cccnc12` [Compound 205], for which the IC50 in test [1] is no less than 5000 nM; in test [2] (Homo sapiens, HCC1806, 4 h), no less than 5000 nM.

Turning to `Cc1ccc(O)c(C)c1-c1c(N)c(C(N)=O)cc2cccnc12` (single isomer, unassigned) [Compound 66, (P)-7-amino-8-(3-hydroxy-2,6-dimethyl-phenyl)quinoline-6-carboxamide], the concentration for half-maximal inhibition (IC50) in test [1] was less than 50 nM; in test [2] (4 hours) it was 50 to 500 nM.

Regarding `Cc1c(O)cccc1-c1c(N)c(C(N)=O)nc2cc(C(F)(F)F)cnc12` (atropisomer, axis not shown) [Compound 166], the figures for the half-maximal inhibitory concentration (IC50) in test [1] and in test [2] (4 hours) were less than 50 nM and 50 to 500 nM, respectively.

On to `Cc1ccc(O)c(C)c1-c1c(N)c(C(N)=O)nc2ccccc12` (atropisomer, axis not shown; (M)) [Compound 44, (M)-3-Amino-4-(3-hydroxy-2,6-dimethylphenyl)quinoline-2-carboxamide], for which the IC50 in test [1] was 50 to 500 nM; in test [2] (4 hours), 1000 to 5000 nM.

For the molecule `Cc1c(O)cccc1-c1cc(C(N)=O)nc2c(C)ccc(C)c12` [Compound 52, 4-(3-Hydroxy-2-methylphenyl)-5,8-dimethylquinoline-2-carboxamide], the IC50 in test [1] was no less than 5000 nM; in test [2] (Homo sapiens, HCC1806, 4 h), no less than 5000 nM.

`NC(=O)c1nc2cccnc2c(-c2cccc3[nH]ncc23)c1N` [Compound 206]: the IC50 fell in the range of 50 to 500 nM in test [1] and 1000 to 5000 nM in test [2] (Homo sapiens, HCC1806, 4 h).

Turning to `Cc1cc(O)c(C)c(-c2c(N)c(C(N)=O)nc3cccnc23)c1` (atropisomer, axis not shown) [Compound 285], the half-inhibitory concentration (IC50) in test [1] is no less than 5000 nM; in test [2] (Homo sapiens, HCC1806, 4 h) it was no less than 5000 nM.
